Structures can show the parent of a compound that is named as a salt. Where two headings read alike, the source gives them in different places.
Assays:
[1] = Buffer stability (phosphate buffer, 37° C., HPLC); type: physicochemical
Description: The representative compounds were first dissolved in a minimum quantity of DMSO in a volumetric flask and diluted up to the mark with diluent (water: acetonitrile 30:70). […] After the elapsed time, the buffer samples were diluted 4 times with acetonitrile and injected into an HPLC system. Quantification of representative compounds was done by HPLC.
HPLC method: Chromatographic separation was achieved on a Hypersil BDS C18 (100×4.6 mm, 5 μ) column using 25 mM KH2PO4 buffer (pH 7 with TEA): acetonitrile, 90:10 v/v as mobile phase-A and 25 mM KH2PO4 buffer (pH 7 with TEA): acetonitrile 30:70 v/v as mobile phase-B. The gradient started with initially 5% B to 45% B in 10 mins followed by 80% B in 22 mins and held up to 25 mins and then returned to initial conditions at 26 mins and continued up to 30 mins. The injection volume was kept 10 μL and the flow rate was kept at 1.0 mL/min. The UV-Vis Detector was set at 220 nm, the column oven was set at 37° C. and the sample cooler was set at […]. Total chromatographic runtime was 30 min.

[2] = test system: HT-29 cells; test: In-vitro cancer cell growth inhibition assay (MTT); type: cell-based; details: Homo sapiens, HT-29, 96 h, read-out: IC50 (nM) HT-29
Description: (§1) The compounds of the present invention were evaluated for their ability to inhibit the growth of various cell line models of small cell lung cancer (SCLC), colon cancer, pancreatic cancer and triple negative breast cancer (TNBC) in-vitro. Details of the cell lines and their respective complete growth media are described in Table 3. The growth inhibition assay was carried out as described below. Briefly, cells in complete growth media were seeded in 96-well plates at appropriate cell densities (seeding density details described in Table 3) and incubated at 37° C., 5% CO2 (3-4 hours for NCI-H526, NCI-H69, NCI-H187 and overnight for the rest of the cells). Serial dilutions of test compound in DMSO were added to the cells while maintaining the final DMSO concentration of 0.4%-0.5% in the well. Plates were incubated for 96-144 h (the exact duration for each assay is described in Table 3) at 37° C., 5% CO2. Subsequently, MTT (final concentration 0.5 mg/mL in media) was incubated with the cells at 37° C., 5% CO2 for 4-5 hours. The formazan crystals were dissolved overnight at 37° C., 5% CO2 using 100 μL extractant (10% SDS in 0.01N HCl) and quantified using absorbance at 570 nm with reference wavelength 630 nm. Growth inhibition was represented as percent decrease in absorbance compared to vehicle treated cells.

[3] = test system: NCI H526 cells; test: In-vitro cancer cell growth inhibition assay (MTT); type: cell-based; details: Homo sapiens, NCI-H526, 96-144 h, read-out: IC50 (nM) NCI H526
Description: as §1

[4] = test system: NCI H69 cells; test: In-vitro cancer cell growth inhibition assay (MTT); type: cell-based; details: Homo sapiens, NCI-H69, 144 h, read-out: IC50 (nM) NCI H69
Description: as §1

[5] = test system: PANC-1 cells; test: In-vitro cancer cell growth inhibition assay (MTT); type: cell-based; details: Homo sapiens, PANC-1, 96 h, read-out: IC50 (nM) PANC-1
Description: as §1

[6] = test system: NCI H187 cells; test: In-vitro cancer cell growth inhibition assay (MTT); type: cell-based; details: Homo sapiens, NCI-H187, read-out: IC50 (nM) NCI H187
Description: as §1, with “Plates were incubated for 96-144 h (the exact duration for each assay is described in Table 3) at 37° C., 5% CO2.” left out

[7] = test system: MDA-MB-231 cells; test: In-vitro cancer cell growth inhibition assay (MTT); type: cell-based; details: Homo sapiens, MDA-MB-231, 96 h, read-out: IC50 (nM) MDA-MB-231
Description: as §1

[8] = test system: MDA-MB-468 cells; test: In-vitro cancer cell growth inhibition assay (MTT); type: cell-based; details: Homo sapiens, MDA-MB-468, 96 h, read-out: IC50 (nM) MDA-MB-468
Description: as §1

[9] = test system: MX-1 cells; test: In-vitro cancer cell growth inhibition assay (MTT); type: cell-based; details: Homo sapiens, MX1, 144 h, read-out: IC50 (nM) MX-1
Description: as §1

[10] = mouse, 2000 ng/mL, pH 5.5
Description: Aliquot of 100 μL were taken from stability samples in pre-labelled micro-centrifuge tubes. 5 μL of cetirizine working internal standard (5 μg/mL) was added to each tube and vortexed well. 1 mL acetonitrile was added to each tube and vortexed well and then centrifuge at 10000 RPM for 5 min at room temperature. The supernatant was collected in ria vials and evaporated to dryness under nitrogen stream. The samples were reconstituted in 1 mL of 0.1% formic acid in water: acetonitrile 30:70 v/v. The prepared samples were analyzed using LC-MS/MS method. Quantification was done against SN-38 standard, prepared at 2000 ng/mL concentration. SN-38 standard prepared by spiking 5 μL of SN-38 working standard to 95 μL of blank mice tumor homogenate to achieve 2000 ng/mL concentration and vortexed well and processed as described.
LC-MS/MS Method: Chromatographic separation was achieved on Inertsil C8-3 (50×4.6 mm, 5 μ) with a flow rate of 250 μL/min and an injection volume of 10 μL. The sample cooler was maintained at 10° C. The column oven temperature was set to 40° C. The mobile phase consisted of 0.1% formic acid in Milli Q water and acetonitrile in the ratio of 30:70 v/v, respectively. […] The overall chromatographic run time was 4.0 minutes.
Detection was performed by tandem mass spectrometry (TSQ Quantum, Discovery MAX, Thermo Electron Corporation) and peak areas were integrated using LCquan software version 2.9 QF1.
0 hr standard area was considered as 100% for calculation.

SMILES	% of Unconverted Compounds of Formula I ([1]; pH 4.7, 0 hr, 200 μg/ml)	% of Unconverted Compounds of Formula I ([1]; pH 4.7, 2 hr, 200 μg/ml)	% of Unconverted Compounds of Formula I ([1]; pH 4.7, 4 hr, 200 μg/ml)	% of Unconverted Compounds of Formula I ([1]; pH 4.7, 6 hr, 200 μg/ml)	% of Unconverted Compounds of Formula I ([1]; pH 4.7, 8 hr, 200 μg/ml)	% of Unconverted Compounds of Formula I ([1]; pH 6.0, 0 hr, 200 μg/ml)	% of Unconverted Compounds of Formula I ([1]; pH 6.0, 2 hr, 200 μg/ml)	% of Unconverted Compounds of Formula I ([1]; pH 6.0, 4 hr, 200 μg/ml)	% of Unconverted Compounds of Formula I ([1]; pH 6.0, 6 hr, 200 μg/ml)	% of Unconverted Compounds of Formula I ([1]; pH 6.0, 8 hr, 200 μg/ml)	% of Unconverted Compounds of Formula I ([1]; pH 7.4, 0 hr, 200 μg/ml)	% of Unconverted Compounds of Formula I ([1]; pH 7.4, 2 hr, 200 μg/ml)	% of Unconverted Compounds of Formula I ([1]; pH 7.4, 4 hr, 200 μg/ml)	% of Unconverted Compounds of Formula I ([1]; pH 7.4, 6 hr, 200 μg/ml)	% of Unconverted Compounds of Formula I ([1]; pH 7.4, 8 hr, 200 μg/ml)	IC50 [2]	IC50 [4]	IC50 [5]	IC50 [6]	further results
CCc1c2c(nc3ccc(O)cc13)-c1cc3c(c(=O)n1C2)COC(=O)[C@@]3(CC)OC(=O)CCCSSCCCC(=O)Nc1ccc(N2CCN(C)CC2)cc1.Cl [Compound I.1, 4-[3-(4-(4-Methylpiperazin-1-yl)phenylcarbamoyl)propyldisulfanyl][(4S)-4,11-diethyl-3,4,12,14-tetrahydro-9-hydroxy-1H-pyrano[3′,4′:6,7]indolizino[1,2-b]quinoline-3,14-(4H,12H)dione-4-yl]butyrate hydrochloride]	100%	96.3%	97.4%	100.0%	100%	100%	95.4%	97.1%	97.2%	97.1%	100%	97.7%	95.5%	100.0%	100%					
CCc1c2c(nc3ccc(O)cc13)-c1cc3c(c(=O)n1C2)COC(=O)[C@@]3(CC)OC(=O)OCCSSCCOC(=O)N(C)c1ccc(N2CCN(C)CC2)cc1.Cl [Compound I.3, 2-(2-{N-Methyl-N-[4-(4-methylpiperazin-1-yl)phenyl]carbamoyloxy}ethyldisulfanyl)ethyl [(4S)-4,11-diethyl-3,4,12,14-tetrahydro-9-hydroxy-1H-pyrano[3′,4′:6,7]indolizino[1,2-b]quinoline-3,14-(4H,12H)dione-4-yl] carbonate hydrochloride]	100%	100%	100%	100%	100%	100%	93.8%	97.8%	98.2%	100%	100%	100%	100%	100%	100%	43.7 nM	1.2 nM	862 nM	0.68 nM	IC50 [3]: 1.91 nM
CCc1c2c(nc3ccc(O)cc13)-c1cc3c(c(=O)n1C2)COC(=O)[C@@]3(CC)OC(=O)OCCSSCCNC(=O)c1ccc(CN2CCN(C)CC2)cc1 [Compound I.6, 2-(2-{4-[4-Methylpiperazin-1-ylmethyl]benzoylamino}ethyldisulfanyl)ethyl [(4S)-4,11-diethyl-3,4,12,14-tetrahydro-9-hydroxy-1H-pyrano[3′,4′:6,7]indolizino[1,2-b]quinoline-3,14-(4H,12H)dione-4-yl] carbonate dihydrochloride]																15.7 nM	2.3 nM	1140 nM	0.23 nM	% of Unconverted Compounds of Formula I ([1]; pH 4.7, 0 hr, 100 μg/ml (footnote *)): 100%; % of Unconverted Compounds of Formula I ([1]; pH 4.7, 2 hr, 100 μg/ml (footnote *)): 96.8%; % of Unconverted Compounds of Formula I ([1]; pH 4.7, 4 hr, 100 μg/ml (footnote *)): 89.8%; % of Unconverted Compounds of Formula I ([1]; pH 4.7, 8 hr, 100 μg/ml (footnote *)): 89.0%; % of Unconverted Compounds of Formula I ([1]; pH 6.0, 0 hr, 100 μg/ml (footnote *)): 100%; % of Unconverted Compounds of Formula I ([1]; pH 6.0, 2 hr, 100 μg/ml (footnote *)): 89.9%; % of Unconverted Compounds of Formula I ([1]; pH 6.0, 4 hr, 100 μg/ml (footnote *)): 89.4%; % of Unconverted Compounds of Formula I ([1]; pH 6.0, 6 hr, 100 μg/ml (footnote *)): 82.5%; % of Unconverted Compounds of Formula I ([1]; pH 6.0, 8 hr, 100 μg/ml (footnote *)): 84.3%; % of Unconverted Compounds of Formula I ([1]; pH 7.4, 0 hr, 100 μg/ml (footnote *)): 100%; % of Unconverted Compounds of Formula I ([1]; pH 7.4, 2 hr, 100 μg/ml (footnote *)): 90.7%; % of Unconverted Compounds of Formula I ([1]; pH 7.4, 4 hr, 100 μg/ml (footnote *)): 81.4%; % of Unconverted Compounds of Formula I ([1]; pH 7.4, 6 hr, 100 μg/ml (footnote *)): 83.7%; % of Unconverted Compounds of Formula I ([1]; pH 7.4, 8 hr, 100 μg/ml (footnote *)): 84.6%; IC50 [7]: 158 nM; IC50 [8]: 13.7 nM; IC50 [9]: 5.4 nM
CCc1c2c(nc3ccc(OC(=O)N4CCC(N5CCCCC5)CC4)cc13)-c1cc3c(c(=O)n1C2)COC(=O)[C@]3(O)CC [Irinotecan, irinotecan hydrochloride]																				% Remaining in tumor lysate ([10]; 0 h): 100.0%; Concentration of SN-38 formed from the substance ([10]; 0 h): 0.0 ng/mL; % Remaining in tumor lysate ([10]; 1 h): 110.5%; Concentration of SN-38 formed from the substance ([10]; 1 hr): 9.4 ng/mL; % Remaining in tumor lysate ([10]; 2 h): 95.4%; Concentration of SN-38 formed from the substance ([10]; 2 hr): 17.5 ng/mL; % Remaining in tumor lysate ([10]; 4 h): 93.1%; Concentration of SN-38 formed from the substance ([10]; 4 hr): 22.8 ng/mL; % Remaining in tumor lysate ([10]; 6 h): 82.3%; Concentration of SN-38 formed from the substance ([10]; 6 hr): 25.5 ng/mL; Concentration of SN-38 formed from the substance ([10]; 8 h): 29.6 ng/mL
